Source: US20260001893A1, “SMALL MOLECULE MODULATORS OF STAT6” (Gilead Sciences, Inc., priority 2024, published 2026)

Tested on: Eotaxin-3 (CCL26) release in human whole blood stimulated with IL-4
Experiment: Human whole blood eotaxin-3 assay (IL-4 stimulated eotaxin-3 release)
Format: cell-based
Conditions: Homo sapiens, 48 h, human whole blood stimulated with recombinant human IL-4, 48 h; given for test compounds with <80% Emax; geometric mean
Experimental: Human Whole Blood Eotaxin-3 Assay
This was a human whole blood assay using recombinant human Interleukin 4 to stimulate the blood and measuring the ability of the test compounds to inhibit eotaxin-3 release. The biological activities of the test compounds have been tested in human whole blood stimulated with IL-4 measuring Eotaxin-3 release. The test compounds were added to 384 well clear flat-bottom plate in a 4-fold serial dilution in triplicates using a liquid handler. Human whole blood stabilized in lithium-heparin tubes was added in a volume of 65 μL per well, resulting in a final DMSO concentration of 0.5%. The plate is incubated for 2 h at 37° C. under 5% CO2/95% air. Subsequently, 5 μL of recombinant human IL-4 (R&D Systems, cat #204-ILB) was added to the wells to a final concentration of […]. The plate was incubated for 48 h at 37° C. under 5% CO2/95% air. The plate was spun down for 10 minutes at 500×g and 20 μL supernatant was harvested and transferred to a 384 well v-bottom plate using a liquid handler and stored at −20° C. until further analysis. 10 μL supernatant was used to measure the level of Eotaxin-3 (CCL26) using Human Eotaxin-3 MSD kit from Mesocsale (Cat #K251UEK-4). The assay was performed according to the manufacture instructions.
The data from the human whole blood eotaxin-3 assay is shown below for Examples 1ab3, 1ab6, 1d23, and 1d4 (where the effect in % is plotted against the test concentration in M on a log-scale).

`CNc1ccn(-c2ccnc3c2cc(CN2CC[C@@H](c4ccc(C(=O)N(C)C)cc4)C[C@@H]2C)n3C)c(=O)c1` (single isomer, unassigned) [Example 1d40] and `CNc1ccn(-c2ccnc3c2cc([C@H](C)N2CC=C(c4c(C)cc(C(=O)N(C)C)nc4C)CC2)n3C)c(=O)c1` (single isomer, unassigned) [Example 1m99] cannot be ordered by Emax: < 20% for the first, < 20% for the second.

First: C[C@H](c1cc2c(-n3ccc(N)c(F)c3=O)ccnc2n1C)N1CC=C(c2ccc(C(=O)N(C)C)cn2)CC1 (single isomer, unassigned) [Example 1m76]
Second: Cc1cc(C(=O)N(C)C)cc(F)c1C1CCN([C@H](C)c2cc3c(-n4ccc5c(c4=O)CCN5)ccnc3n2C)CC1 (single isomer, unassigned) [Example 1m120]
The Emax of the first is lower: < 20% for the first, 40 to 50% for the second.

Same assay, conditions: Homo sapiens, 48 h, human whole blood stimulated with recombinant human IL-4, 48 h; inhibition of eotaxin-3 release; given for test compounds with >80% Emax; geometric mean

Compared with `CNc1ccn(-c2ccnc3c2cc(CN2CC[C@@H](c4ccc(C(=O)N(C)C)cc4)C[C@H]2C)n3C)c(=O)c1` (single isomer, unassigned) [Example 1d42], `CNc1ccn(-c2ccnc3c2cc(CN2CCC(c4ccc(C(=O)N(C)C)cc4)C[C@@H]2C)n3C)c(=O)c1` (single isomer, unassigned) [Example 1d43] is 6.8-fold lower in EC50: 150 nM for the first, 21.9 nM for the second. The second is the more potent here.

Compared with `C[C@@H](c1cc2c(-n3ccc(N)c(F)c3=O)ccnc2n1C)N1CC=C(c2ccc(C(=O)N(C)C)cn2)CC1` (single isomer, unassigned) [Example 1m77], `CNc1ccn(-c2ccnc3c2cc([C@@H](C)N2CC=C(c4c(C)cc(C(=O)N(C)C)cc4F)CC2)n3C)c(=O)c1` (single isomer, unassigned) [Example 1m105] is 6.5-fold lower in EC50: 524 nM for the first, 80.6 nM for the second. The second is the more potent here.

Compared with `CNc1ccn(-c2ccnc3c2cc([C@@H](C)N2CC=C(c4c(C)cc(C(=O)N(C)C)nc4C)CC2)n3C)c(=O)c1` (single isomer, unassigned) [Example 1m100], `CNc1ccn(-c2ccnc3c2cc([C@@H](C)N2CC[C@@H](c4c(C)cc(C(=O)N(C)C)cc4F)C(F)(F)C2)n3C)c(=O)c1` (single isomer, unassigned) [Example 1m143] is 1.9-fold higher in EC50: 440 nM for the first, 855 nM for the second.

`Cc1cc(C(=O)N(C)C)cc(F)c1C1CCN([C@@H](C)c2cc3c(-n4ccc5c(c4=O)CCN5)ccnc3n2C)CC1` (single isomer, unassigned) [Example 1m121] and `CN(C)C(=O)c1cc(F)c(C2=CCN(Cc3cc4c(-n5ccc6c(c5=O)CCN6)ccnc4n3C)CC2)c(C2CC2)c1` (single isomer, unassigned) [Example 1m135, 3-cyclopropyl-5-fluoro-N,N-dimethyl-4-(1-((1-methyl-4-(4-oxo-1,2,3,4-tetrahydro-5H-pyrrolo[3,2-c]pyridin-5-yl)-1H-pyrrolo[2,3-b]pyridin-2-yl)methyl)-1,2,3,6-tetrahydropyridin-4-yl)benzamide] are within 1.5-fold of each other in EC50: 16.4 nM for the first, 12.1 nM for the second.

Compared with `CN(C)C(=O)c1cc(F)c(C2=CCN(Cc3cc4c(-n5ccc6c(c5=O)CCN6)ccnc4n3C)CC2)cc1C1CC1` (single isomer, unassigned) [Example 1m134, 2-cyclopropyl-5-fluoro-N,N-dimethyl-4-(1-((1-methyl-4-(4-oxo-1,2,3,4-tetrahydro-5H-pyrrolo[3,2-c]pyridin-5-yl)-1H-pyrrolo[2,3-b]pyridin-2-yl)methyl)-1,2,3,6-tetrahydropyridin-4-yl)benzamide], `CNc1ccn(-c2ccnc3c2cc(CN2CCC(c4ccc(C(=O)N(C)C)cc4)C[C@H]2C)n3C)c(=O)c1` (stereo in doubt) [Example 1d41, N,N-dimethyl-4-[(2R,4S)-2-methyl-1-[[1-methyl-4-[4-(methylamino)-2-oxo-1-pyridyl]pyrrolo[2,3-b]pyridin-2-yl]methyl]-4-piperidyl]benzamide] is 10-fold lower in EC50: 2900 nM for the first, 279 nM for the second. The second is the more potent here.

In the case of `CNc1ccn(-c2ccnc3c2cc([C@@H](C)N2CC[C@H](c4c(C)cc(C(=O)N(C)C)cc4F)C(F)(F)C2)n3C)c(=O)c1` (single isomer, unassigned) [Example 1m144], the EC50 is reported as 2170 nM.

Same assay, conditions: human whole blood stimulated with recombinant human IL-4, 48 h; inhibition of eotaxin-3 release; given for test compounds with >80% Emax; geometric mean

With `CNc1ccn(-c2ccnc3c2cc([C@@H](C)N2CC[C@H](c4c(C)cc(C(=O)N(C)C)cc4F)C(F)(F)C2)n3C)c(=O)c1` (single isomer, unassigned) [Example 1m141] the EC50 was 610 nM.
